Reference: PubChem BioAssay AID831 (PCMD, 2007)
Activity calls are given as the source filed them. The rule behind the calls is not given here.

Molecular target: Cathepsin S (Homo sapiens) (UniProt P25774)
Experiment: IC50 of CTSS protease blockers – biochemical, confirmation, dose response (AID 831)
Conditions: purified cathepsin S enzyme activity, fluorescence

Cathepsin S (Homo sapiens), sequence (P25774 115-331 limits assumed): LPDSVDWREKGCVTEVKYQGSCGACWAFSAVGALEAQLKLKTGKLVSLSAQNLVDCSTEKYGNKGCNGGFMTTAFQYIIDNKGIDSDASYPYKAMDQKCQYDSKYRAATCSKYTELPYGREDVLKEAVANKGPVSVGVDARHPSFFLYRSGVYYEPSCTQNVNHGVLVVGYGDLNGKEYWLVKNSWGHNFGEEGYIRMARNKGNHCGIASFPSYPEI

Structure (SMILES) | IC50
CC(=O)c1c(O)n(C)c(=S)n(-c2ccccc2)c1=O | > 50 µM (inactive)
N#CC1=C(N)Oc2c(sc3ccccc23)C1c1ccco1 (centres undefined) | > 50 µM (inactive)
CC1=C(C(=O)Nc2ccc(F)cc2)C(c2cccc(C)c2)n2nc(CCCO)nc2N1 (centres undefined) | > 50 µM (inactive)
CCN1CC=C2C(C#N)=C(N)C(C#N)(C#N)C(CCc3ccccc3)C2C1 (centres undefined) | 6.55 µM
